From PubChem BioAssay (NCI) come the findings set out here.

Values joined by “and” are separate entries in the source; they are usually repeats but may differ in a detail not shown here. Equal values may be shown once.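 All cell lines were grown in 96-well plates and treated with compound for 48 hours. GI50 = concentration required for 50% inhibition of growth. TGI denotes the concentration required for complete inhibition of growth.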

Among the test systems are SW-620 colon; OVCAR-8 ovarian; T-47D breast; SF-539 CNS; OVCAR-5 ovarian; EKVX NSCLC; UACC-62 melanoma; SF-268 CNS; KM12 colon; NCI-H522 lung; SF-295 CNS; MDA-MB-231 breast; SNB-19 CNS; A549 NSCLC; SNB-75 CNS; RPMI-8226 leukemia; OVCAR-4 ovarian.
Holding throughout (test): DTP human tumour cell line panel, 48 h

By TGI is commonly meant the concentration at which net growth stops. Lower therefore signals more potent growth arrest. Broadly, the GI50 is the concentration that inhibits growth by half.

For the molecule `COc1cc2cc(C(=O)N3CC(CCl)c4ccc(O)cc43)[nH]c2c(OC)c1OC` (stereo not given), the TGI with SW-620 colon is 0.137 µM; in the assay with OVCAR-8 ovarian, 0.0253 µM; in the assay on T-47D breast it was 0.547 µM; in the assay on SF-539 CNS it was 0.00881 µM; in the assay with OVCAR-5 ovarian, 0.765 µM; in the assay on EKVX NSCLC, 0.35 µM and 0.749 µM. Further, the TGI in the assay on UACC-62 melanoma was 0.00683 µM; in the assay with SF-268 CNS it was 0.145 µM; in the assay with KM12 colon, 0.0273 µM; in the assay on NCI-H522 lung, 0.00168 µM; in the assay on SF-295 CNS, 0.00398 µM; in the assay on MDA-MB-231 breast it was 0.0134 µM. For the same molecule, the TGI in the assay on SNB-19 CNS is 0.453 µM and 0.21 µM; with A549 NSCLC it was 1.25 µM; in the assay on SNB-75 CNS, 0.0652 µM. Besides, the GI50 in the assay on EKVX NSCLC is 0.285 µM.
As for `CNC(=O)N1CN(c2ccccc2)C2(CCN(CCCC(=O)c3ccc(F)cc3)CC2)C1=O`, the TGI was 34 µM in the assay with RPMI-8226 leukemia; > 100 µM in the assay with SW-620 colon; > 100 µM with OVCAR-8 ovarian; 33.8 µM in the assay on T-47D breast; 34 µM in the assay with SF-539 CNS; 29 µM in the assay on OVCAR-5 ovarian. For the same molecule, the TGI is 52.5 µM in the assay on EKVX NSCLC; 43.4 µM in the assay on UACC-62 melanoma; > 100 µM in the assay on SF-268 CNS; 45.9 µM in the assay on KM12 colon; 56.6 µM in the assay on NCI-H522 lung; 31 µM with SF-295 CNS. For the same molecule, the TGI with MDA-MB-231 breast was 90.3 µM; in the assay with SNB-19 CNS, > 100 µM; in the assay with A549 NSCLC it was > 100 µM; in the assay with SNB-75 CNS, > 100 µM.
In the case of `CCOC(=O)C1=C(O)C(=O)c2ccsc2C1=O`, the TGI with RPMI-8226 leukemia, with SW-620 colon, in the assay on OVCAR-8 ovarian, in the assay on SF-539 CNS, with OVCAR-5 ovarian and in the assay on EKVX NSCLC was > 100 µM throughout. The TGI in the assay on UACC-62 melanoma, in the assay with SF-268 CNS, in the assay with KM12 colon, in the assay with NCI-H522 lung, in the assay on SF-295 CNS and in the assay on OVCAR-4 ovarian was > 100 µM each time. Further, the TGI in the assay on SNB-19 CNS, with A549 NSCLC and with SNB-75 CNS was > 100 µM in each case.
`COc1ccc(NC(=O)C/C(C)=N\N=C(N)N)c([N+](=O)[O-])c1`: the total growth inhibition concentration (TGI) with RPMI-8226 leukemia, with OVCAR-8 ovarian, with SF-539 CNS, in the assay on OVCAR-5 ovarian, in the assay on EKVX NSCLC and in the assay on UACC-62 melanoma was > 100 µM each time. Moreover, the TGI in the assay on SF-268 CNS, in the assay with KM12 colon, with NCI-H522 lung, in the assay on SF-295 CNS, with OVCAR-4 ovarian and in the assay on SNB-19 CNS was > 100 µM throughout. Also, the TGI with A549 NSCLC and with SNB-75 CNS was > 100 µM throughout.
`COc1cccc(/C=C2/Sc3scc(-c4ccccc4)[n+]3C2=O)c1O`: the TGI with SW-620 colon is 43.8 µM; in the assay with OVCAR-8 ovarian it was 35.4 µM; in the assay with SF-539 CNS it was 47.6 µM; in the assay on OVCAR-5 ovarian, > 100 µM; with EKVX NSCLC, 64.6 µM; in the assay on UACC-62 melanoma, 30.5 µM. For the same molecule, the TGI in the assay with SF-268 CNS was > 100 µM; in the assay on KM12 colon, 40.4 µM; with NCI-H522 lung, 52.8 µM; in the assay with SF-295 CNS it was > 100 µM; in the assay on MDA-MB-231 breast, 79.2 µM; in the assay on OVCAR-4 ovarian it was 74.4 µM. Moreover, the TGI with SNB-19 CNS is 67 µM; in the assay on A549 NSCLC, > 100 µM; in the assay on SNB-75 CNS, > 100 µM.
On to `CN(C)c1ccc(C=C2C(=O)OC(C)(C)OC2=O)cc1Br`, for which the TGI with RPMI-8226 leukemia, in the assay with SW-620 colon, with OVCAR-8 ovarian, in the assay with SF-539 CNS, in the assay with OVCAR-5 ovarian and in the assay on EKVX NSCLC was > 100 µM in each case. Moreover, the TGI in the assay with UACC-62 melanoma, in the assay with SF-268 CNS, in the assay with KM12 colon, with NCI-H522 lung, with SF-295 CNS and with OVCAR-4 ovarian was > 100 µM each time. In addition, the TGI in the assay on SNB-19 CNS, with A549 NSCLC and in the assay on SNB-75 CNS was > 100 µM throughout.
`Cn1c(/C=C(\O)c2ccc(Cl)cc2)nc2ccccc21`: the TGI in the assay on RPMI-8226 leukemia was > 100 µM; with SW-620 colon it was > 100 µM; in the assay on OVCAR-8 ovarian, > 100 µM; in the assay on SF-539 CNS, > 100 µM; with OVCAR-5 ovarian it was 67.7 µM; in the assay with EKVX NSCLC it was 84.8 µM. Further, the TGI in the assay on UACC-62 melanoma, in the assay on SF-268 CNS, in the assay on KM12 colon, in the assay on NCI-H522 lung, in the assay with SF-295 CNS and with OVCAR-4 ovarian was > 100 µM in each case. For the same molecule, the values for the TGI in the assay on SNB-19 CNS, in the assay on A549 NSCLC and with SNB-75 CNS were > 100 µM, 69.4 µM and > 100 µM, respectively.
Regarding `CCOC(=O)c1nc2ccc([N+](=O)[O-])cc2c2c1CCO2`, the TGI with SW-620 colon, with OVCAR-8 ovarian, with SF-539 CNS, in the assay with OVCAR-5 ovarian, in the assay on EKVX NSCLC and with UACC-62 melanoma was > 100 µM throughout. For the same molecule, the TGI in the assay with SF-268 CNS, in the assay with KM12 colon, in the assay with NCI-H522 lung, in the assay with SF-295 CNS, in the assay on OVCAR-4 ovarian and with SNB-19 CNS was > 100 µM in each case. Further, the TGI in the assay on A549 NSCLC and with SNB-75 CNS was > 100 µM in each case.
For `C/C(=N\Nc1nc2ccccc2s1)c1ncccn1`, the TGI with SW-620 colon was > 69.2 µM; in the assay with OVCAR-8 ovarian, 0.0505 µM; in the assay with T-47D breast, > 100 µM; in the assay with SF-539 CNS, 20 µM; in the assay on OVCAR-5 ovarian, 22.7 µM; in the assay with EKVX NSCLC, 4.54 µM. Moreover, the TGI was 1.06 µM with UACC-62 melanoma; 5.12 µM with SF-268 CNS; 9.46 µM with KM12 colon; 16.5 µM with NCI-H522 lung; 3.78 µM with SF-295 CNS; > 64.6 µM with MDA-MB-231 breast. In addition, the results for the TGI in the assay on SNB-19 CNS, in the assay with A549 NSCLC and in the assay with SNB-75 CNS were > 100 µM, > 20 µM and 5.58 µM, respectively.
